Data: US20210238187A1, “AZIRIDINE CONTAINING EPOTHILONE ANALOGS, METHODS OF SYNTHESIS, METHODS OF TREATMENT, AND DRUG CONJUGATES” (WILLIAM MARSH RICE UNIVERSITY, priority 2017, published 2021)
Like-named read-outs stand apart in the source and are kept apart here.

Legend:
[1] = system: MCF-7; experiment: Cytotoxicity (GI50) assay, MCF-7; assay type: cell-based, human
[2] = system: MDA-MB-435; experiment: Cytotoxicity (GI50) assay, MDA-MB-435; assay type: cell-based, human
[3] = system: Tubulin; experiment: Tubulin assembly induction; assay type: biochemical
[4] = system: NCI/ADR-RES; experiment: Cytotoxicity (GI50) assay, NCI/ADR-RES; assay type: cell-based, human; conditions: Homo sapiens, NCI/ADR-RES, read-out: Cancer cell lines GI50, NCI/ADR-RES
[5] = system: MES SA; experiment: Cytotoxicity assay (CellTiter-Glo), MES SA; assay type: cell-based, human; conditions: MES-SA, read-out: Cancer cell lines IC50, MES SA
[6] = system: SNB-75; experiment: Cytotoxicity (GI50) assay, SNB-75; assay type: cell-based, human
[7] = system: HEK 293T; experiment: Cytotoxicity assay (CellTiter-Glo), HEK 293T; assay type: cell-based; conditions: Homo sapiens, 72 h, read-out: Cancer cell lines IC50, HEK 293T
[8] = system: MES SA DX; experiment: Cytotoxicity assay (CellTiter-Glo), MES SA DX; assay type: cell-based, human; conditions: Homo sapiens, read-out: Cancer cell lines IC50, MES SA DX
[9] = system: OVCAR-8; experiment: Cytotoxicity (GI50) assay, OVCAR-8; assay type: cell-based, human
[10] = Homo sapiens, MCF7, read-out: Cancer cell lines GI50, MCF-7
[11] = Homo sapiens, MDA-MB-435, read-out: Cancer cell lines GI50, MDA-MB-435
[12] = Homo sapiens, SNB-75, read-out: Cancer cell lines GI50, SNB-75
[13] = Homo sapiens, OVCAR-8, read-out: Cancer cell lines GI50, OVCAR-8
[14] = MCF7, human breast cancer cell line, concentration required to decrease cell growth by 50%, read-out: Cancer cell lines GI50, MCF-7
[15] = MDA-MB-435, human melanoma cell line, read-out: Cancer cell lines GI50, MDA-MB-435
[16] = highly drug resistant human ovarian cancer cell line
[17] = human uterine sarcoma cell line, 72 hours, CellTiter-Glo
[18] = SNB-75, human glioblastoma cell line, read-out: Cancer cell lines GI50, SNB-75
[19] = MES SA cell line with marked multidrug resistance, 72 hours, CellTiter-Glo
[20] = OVCAR-8, human ovarian cancer cell line, read-out: Cancer cell lines GI50, OVCAR-8

Row | SMILES | GI50 [1, 10] | GI50 [2, 11] | EC50 ([3]; […]) | GI50 [4] | IC50 ([5]; Homo sapiens, 72 h) | GI50 [6, 12] | IC50 [7] | IC50 ([8]; MES-SA, 72 h) | GI50 [9, 13] | EC50 [3] | GI50 [1, 14] | GI50 [2, 15] | GI50 [4, 16] | IC50 [5, 17] | GI50 [6, 18] | IC50 [8, 19] | GI50 [9, 20]
1 | C/C(=C\c1csc(-c2nc(C)cs2)n1)[C@@H]1C[C@@H]2N(CCO)[C@]2(C)CCC[C@H](C)[C@H](O)[C@@H](C)C(=O)C(C)(C)[C@@H](O)CC(=O)O1 (stereo partly drawn) [compound 22, (1S,3S,7S,10R,11S,12S,16R)-7,11-Dihydroxy-17-(2-hydroxyethyl)-8,8,10,12,16-pentamethyl-3-[(1E)-1-(4′-methyl-2,2′-bi-1,3-thiazol-4-yl)prop-1-en-2-yl]-4-oxa-17-azabicyclo[14.1.0]-heptadecane-5,9-dione] | 7.5 nM | 4 nM | 17000 nM | 240 nM | 1.86 nM | 18 nM | 1.55 nM | 392 nM | 18 nM | – | – | – | – | – | – | – | –
2 | C/C(=C\c1csc(C)n1)[C@@H]1C[C@H]2[C@@H](CCC[C@H](C)[C@H](O)[C@@H](C)C(=O)C(C)(C)[C@@H](O)CC(=O)O1)N2CCO (stereo partly drawn) [compound 9, (1S,3S,7S,10R,11S,12S,16R)-7,11-Dihydroxy-17-(2-hydroxyethyl)-8,8,10,12-tetramethyl-3-[(1E)-1-(2-methyl-1,3-thiazol-4-yl)prop-1-en-2-yl]-4-oxa-17-azabicyclo[14.1.0]heptadecane-5,9-dione, reference compound] | 2 nM | – | 1900 nM | – | 8.01 nM | – | 0.67 nM | 15.7 nM | 3 nM | – | – | – | – | – | – | – | –
3 | CC1=CCC(C(C)=Cc2csc(C)n2)OC(=O)CC(O)C(C)(C)C(=O)C(C)C(O)C(C)CCC1 (centres unmarked) [compound 4, epothilone D, reference compound] | 14 nM | – | – | 17 nM | 6.84 nM | – | 3.55 nM | 9.7 nM | 13 nM | 18000 nM | – | – | – | – | – | – | –
4 | C/C(=C\c1cc(C)no1)[C@@H]1C[C@@H]2N(CCO)[C@]2(C)CCC[C@H](C)[C@H](O)[C@@H](C)C(=O)C(C)(C)[C@@H](O)CC(=O)O1 (stereo partly drawn) [compound 29, (1S,3S,7S,10R,11S,12S,16R)-7,11-Dihydroxy-17-(2-hydroxyethyl)-8,8,10,12,16-pentamethyl-3-[(1E)-1-(3-methyl-1,2-oxazol-5-yl)prop-1-en-2-yl]-4-oxa-17-azabicyclo[14.1.0]heptadecane-5,9-dione] | 9.5 nM | 17 nM | 45000 nM | 390 nM | 6.54 nM | 34 nM | 1.67 nM | > 70 nM | 27 nM | – | – | – | – | – | – | – | –
5 | C/C(=C\c1csc(C)n1)[C@@H]1C[C@@H]2O[C@]2(C)CCC[C@H](C)[C@H](O)[C@@H](C)C(=O)C(C)(C)[C@@H](O)CC(=O)O1 [compound 2, epothilone B, reference compound] | 9.2 nM | 7 nM | […] | 19 nM | 0.28 nM | 8 nM | 0.26 nM | 1.16 nM | 15 nM | – | – | – | – | – | – | – | –
6 | CSc1nc(/C=C(\C)[C@@H]2C[C@@H]3N(CCO)[C@]3(C)CCC[C@H](C)[C@H](O)[C@@H](C)C(=O)C(C)(C)[C@@H](O)CC(=O)O2)co1 (stereo partly drawn) [compound 17, (1S,3S,7S,10R,11S,12S,16R)-7,11-Dihydroxy-17-(2-hydroxyethyl)-8,8,10,12,16-pentamethyl-3-{(1E)-1-[2-(methylsulfanyl)-1,3-oxazol-4-yl]prop-1-en-2-yl}-4-oxa-17-azabicyclo[14.1.0]-heptadecane-5,9-dione] | 7.5 nM | 3.5 nM | 4000 ± 1000 nM | – | 0.02 nM | 13 nM | 0.05 nM | 1.11 nM | 25 nM | – | – | – | – | – | – | – | –
7 | C#CCCN1[C@H]2C[C@@H](/C(C)=C/c3csc(SC)n3)OC(=O)C[C@H](O)C(C)(C)C(=O)[C@H](C)[C@@H](O)[C@@H](C)CCC[C@]21C (stereo partly drawn) [compound 39, (1S,3S,7S,10R,11S,12S,16R)-17-(But-3-yn-1-yl)-7,11-dihydroxy-8,8,10,12,16-pentamethyl-3-{(1E)-1-[2-(methylsulfanyl)-1,3-thiazol-4-yl]prop-1-en-2-yl}-4-oxa-17-azabicyclo[14.1.0]heptadecane-5,9-dione] | 30 nM | 3.5 nM | 3500 nM | – | 0.23 nM | 31 nM | 0.09 nM | 0.45 nM | 18 nM | – | – | – | – | – | – | – | –
8 | C/C(=C\c1nc2ccccc2s1)[C@@H]1C[C@@H]2N(CCO)[C@]2(C)CCC[C@H](C)[C@H](O)[C@@H](C)C(=O)C(C)(C)[C@@H](O)CC(=O)O1 (stereo partly drawn) [compound 24, (1S,3S,7S,10R,11S,12S,16R)-3-[(1E)-1-(1,3-Benzothiazol-2-yl)prop-1-en-2-yl]-7,11-dihydroxy-17-(2-hydroxyethyl)-8,8,10,12,16-pentamethyl-4-oxa-17-azabicyclo[14.1.0]heptadecane-5,9-dione] | – | – | 7900 nM | – | – | – | – | – | – | – | 11 nM | 3.5 nM | 630 nM | 0.18 nM | 12 nM | 1.32 nM | 23 nM
9 | CC(=Cc1csc(C)n1)C1CC2OC2CCCC(C)C(O)C(C)C(=O)C(C)(C)C(O)CC(=O)O1 (centres unmarked) [compound 1, epothilone A] | – | – | – | 78 nM | – | – | – | 5.12 nM | – | 22000 nM | 17 nM | 16 nM | – | 1.46 nM | 26 nM | – | 20 nM
10 | CSc1nc(/C=C(\C)[C@@H]2C[C@@H]3N(CCOC(C)=O)[C@]3(C)CCC[C@H](C)[C@H](O)[C@@H](C)C(=O)C(C)(C)[C@@H](O)CC(=O)O2)cs1 (stereo partly drawn) [compound 36, 2-[(1S,3S,7S,10R,11S,12S,16R)-7,11-Dihydroxy-8,8,10,12,16-pentamethyl-3-{(1E)-1-[2-(methylsulfanyl)-1,3-thiazol-4-yl]prop-1-en-2-yl}-5,9-dioxo-4-oxa-17-azabicyclo[14.1.0]-heptadec-17-yl]ethyl acetate] | 5.5 nM | 3.5 nM | 4000 nM | – | 0.29 nM | 23 nM | 0.07 nM | 0.86 nM | 18 nM | – | – | – | – | – | – | – | –
11 | C/C(=C\c1csc(CCN)n1)[C@@H]1C[C@@H]2N(CCO)[C@]2(C)CCC[C@H](C)[C@H](O)[C@@H](C)C(=O)C(C)(C)[C@@H](O)CC(=O)O1 (stereo partly drawn) [compound 20, (1S,3S,7S,10R,11S,12S,16R)-3-{(1E)-1-[2-(2-Aminoethyl)-1,3-thiazol-4-yl]prop-1-en-2-yl}-7,11-dihydroxy-17-(2-hydroxyethyl)-8,8,10,12,16-pentamethyl-4-oxa-17-azabicyclo[14.1.0]heptadecane-5,9-dione] | – | – | 9100 nM | – | – | – | – | – | – | – | 15 nM | 3.8 nM | 45 nM | 16.1 nM | 50 nM | > 2500 nM | 8.6 nM
12 | C/C(=C\c1csc(C)n1)[C@@H]1C[C@@H]2N[C@@H]2CCC[C@H](C)[C@H](O)[C@@H](C)C(=O)C(C)(C)[C@@H](O)CC(=O)O1 [compound 8, 12,13-aziridinyl epothilone A, reference compound] | 2.5 nM | – | > 40000 nM | 38 nM | 1.14 nM | – | 0.95 nM | 16.9 nM | 5.5 nM | – | – | – | – | – | – | – | –
